Patent US4925844A, “Antagonizing the pharmacological effects of a benzodiazepine receptor agonist” (ICI Americas Inc., priority 1989, dated 1990)

What was measured:
[1] = test system: benzodiazepine receptors; conditions: general statement on how activity is indicated in the test; cited from earlier work
[2] = test system: rats; assay: Neuromuscular impairment / roto-rod test; conditions: for neuromuscular uncoordination (ataxia) on the roto-rod: benzodiazepine agonist alone; for antagonism of diazepam-induced neuromuscular impairment on the roto-rod: oral or intraperitoneal, 30 to 45 minutes before the benzodiazepine agonist
Experimental: Further tests may be conducted to evaluate the agonist/antagonist profile of a compound. The procedures or methods used to determine anticonflict (shock-induced suppressions of drinking test), antagonism of metrazole-induced convulsions and neuromuscular impairment (roto-rod studies) are published in Eur. J. Pharmacol. 78(3):323-333 (1980) and briefly discussed below. To determine the antagonist properties of a test compound, subjects are treated with test agent intraperitoneally or orally at selected intervals prior to or following treatment with a benzodiazepine agonist, and are then tested under the appropriate test conditions.
A roto-rod test (Rinnard and Car, J. Pharmacol. and Exp. Therap. 121:354 (1957)) which measures the rat's muscle tone and ability to perform coordinated locomotor tasks may be used to evaluate a test compound's antagonist properties. In the roto-rod test, rats are trained to maintain themselves for at least 1 min on a rotating rod (6 r.p.m.). Subjects are treated with a test compound and are retested for their ability to maintain themselves on the roto-rod at 30 and 60 min. post-drug administration. Subjects that fail to stay on the rod for a one-minute period are considered to be neuromuscularly impaired (ataxia) and the ED50 (that dose which would be expected to produce ataxia in 50% of the rats tested) is calculated. […] The benzodiazepine antagonists may also be administered immediately prior to, or immediately after, the benzodiazepine agonist in this test.

[3] = test system: rats; assay: Anti-conflict activity / shock-induced suppression of drinking (SSD) test; type: in vivo; conditions: for anticonflict activity (increase in mean number of shocks taken vs vehicle controls): substance given alone; for antagonism of the anticonflict or disinhibiting activity (increase in shocks taken) of benzodiazepine agonists: oral or i.p., 0.2 to 50 mg per kg, 30 to 45 minutes before the benzodiazepine agonist
Experimental: A modification of the method of Vogel and coworkers (1971) is used. […] In this test, benzodiazepine agonists (e.g. chlordiazepoxide) are administered either intraperitoneally (i.p.) or orally (p.o.) at 30 or 60 min., respectively, prior to the initiation of the test. […]
The mean number of shocks taken for the groups that received the test agents (benzodiazepine agonists) alone and in the presence of benzodiazepine antagonist are recorded.

[4] = test system: male Wistar rats; assay: Overt toxicity after intraperitoneal dosing; type: in vivo
Excerpt: In general, the compound 4-amino-8-phenyl-N-propyl-3-cinnolinecarboxamide is believed to be able to antagonize the effects of benzodiazepine receptor agonists and will be useful whenever such antagonism is desired.

[5] = test system: metrazole-induced convulsions; assay: Antagonism of metrazole-induced convulsions (anticonvulsant activity); type: in vivo; conditions: substance given alone
Experimental: Further tests may be conducted to evaluate the agonist/antagonist profile of a compound. […] To determine the antagonist properties of a test compound, subjects are treated with test agent intraperitoneally or orally at selected intervals prior to or following treatment with a benzodiazepine agonist, and are then tested under the appropriate test conditions.

[6] = test system: benzodiazepine receptors; assay: [3H]-flunitrazepam binding test (FNB test); conditions: at a tested concentration of 500 nanomolar or less; rat cerebral cortex P2 membranes

SMILES: CCCCNc1c(C(=O)OCC)cnc2c1cnn2CC [cartazolate]
- effect on flunitrazepam binding (displacement or enhancement) [1]: enhancement of the binding

SMILES: CNC1=Nc2ccc(Cl)cc2C(c2ccccc2)=[N+]([O-])C1 [chlordiazepoxide]
- neuromuscular uncoordination (ataxia) on the roto-rod [2]: produce neuromuscular uncoordination (ataxia) at relatively low doses
- mean number of shocks taken as compared to vehicle controls ([3]; rats, oral dose of 18 mg per kg chlordiazepoxide alone): significant increases
- anticonflict activity (increase in mean number of shocks taken vs vehicle controls) [3]: significant (P<0.05) anticonflict activity

SMILES: CN1C(=O)CN=C(c2ccccc2)c2cc(Cl)ccc21 [diazepam]
- neuromuscular uncoordination (ataxia) on the roto-rod [2]: produce neuromuscular uncoordination (ataxia) at relatively low doses
- anticonflict activity (increase in mean number of shocks taken vs vehicle controls) [3]: significant (P<0.05) anticonflict activity

SMILES: CCOC(=O)c1ncn2c1CN(C)C(=O)c1cc(F)ccc1-2 [ethyl 8-fluoro-5,6-dihydro-5-methyl-6-oxo-4H-imidazo(1,5a)(1,4)benzodiazepine-3-carboxylate]
- antagonism of diazepam-induced neuromuscular impairment on the roto-rod [2]: antagonized
- antagonism of the anticonflict or disinhibiting activity (increase in shocks taken) of benzodiazepine agonists [3]: antagonized

SMILES: CCCNC(=O)c1nnc2c(-c3ccccc3)cccc2c1N [formula Ia, 4-amino-8-phenyl-N-propyl-3-cinnolinecarboxamide]
- toxicological problems ([4]; at several multiples of a therapeutic dose): has not exhibited toxicological problems
- overt toxic effects ([4]; male Wistar rats, intraperitoneal dose of 50 mg per kg): no overt toxic effects
- antagonism of diazepam-induced neuromuscular impairment on the roto-rod [2]: antagonized
- neuromuscular impairment (reversal of diazepam effect; ability to remain on the roto-rod) ([2]; rats, intraperitoneal 1.25 mg per kg five minutes after 20 mg per kg intraperitoneal diazepam): did not exhibit significant neuromuscular impairment
- anticonvulsant activity typical of benzodiazepine agonists [5]: does not exhibit
- antagonism of the anticonflict or disinhibiting activity (increase in shocks taken) of benzodiazepine agonists [3]: antagonized
- mean number of shocks taken (reversal of chlordiazepoxide effect) ([3]; rats, oral 1.25 mg per kg five minutes prior to 18 mg per kg oral chlordiazepoxide): did not exhibit a significant increase
- anticonflict activity (increase in mean number of shocks taken vs vehicle controls) [3]: does not exhibit
- displacement of specific [3H]-flunitrazepam binding [6]: ≥ 50%

SMILES: CCCCNc1c(C(=O)OCC)c(C)nc2c1cnn2CC [tracazolate]
- effect on flunitrazepam binding (displacement or enhancement) [1]: enhancement of the binding
